“Also recorded” adds a separate entry of the source. Where a SMILES comes first, the peptide text is derived from it. The star is where a group is joined. Cbz = O=C(OCc1ccccc1)*

Experiment [1] concerns sapje zebrafish. Briefly: Rescue of the dystrophic phenotype (muscle integrity, actin:GFP) in sapje zebrafish embryos. The format is in vivo. The conditions noted are these: sapje embryos treated from 24 hpf; actin:GFP as marker of muscle integrity. As for the experimental part: Zebrafish embryos were collected from group matings of heterozygous sapje ta222a (a dystrophin mutant) and homozygous for a transgene that labels all the fast muscle with GFP (actin:GFP;). At 24 hours post fertilization (hpf) embryos were dechorionated enzymatically, washed and arrayed into multiwell plates with 40 embryos per treatment (5 embryos per well). Sapje embryos are produced at normal Mendelian frequencies, so from 40 embryos we expect 10 homozygote for sapje. Compounds to be tested were added to a final concentration based on available clinical or mouse studies for EC50. All plates included negative controls. Live embryos were assayed for muscle degeneration using actin:GFP as a marker of muscle integrity in sapje fish. Fluorescent scans for GFP along the body axis of wildtype siblings or mutant fish reveal a dramatic profile of fluorescence intensity which clearly distinguished the normal muscle from damaged muscle.

In experiment [2] the test system is β-dystroglycan. Briefly: Western blot analysis of β-dystroglycan and phosphorylated β-dystroglycan in sapje fish. The format is in vivo, zebrafish. The conditions noted are these: 1 μM MG132, western blot. As for the experimental part:
FIG. 16. Illustrates western blot analysis of β-dystroglycan (β-DG) and phosphorylated β-dystroglycan (p β-DG) in sapje fish (blue bars) and in sapje fish treated with 1 μM of the proteasomal inhibitor MG132 (purple bars).

For experiment [3], the target named is T1, ubiquitin activating enzyme E1 (Homo sapiens, UniProt P22314).
T1 sequence (P22314 1-1058): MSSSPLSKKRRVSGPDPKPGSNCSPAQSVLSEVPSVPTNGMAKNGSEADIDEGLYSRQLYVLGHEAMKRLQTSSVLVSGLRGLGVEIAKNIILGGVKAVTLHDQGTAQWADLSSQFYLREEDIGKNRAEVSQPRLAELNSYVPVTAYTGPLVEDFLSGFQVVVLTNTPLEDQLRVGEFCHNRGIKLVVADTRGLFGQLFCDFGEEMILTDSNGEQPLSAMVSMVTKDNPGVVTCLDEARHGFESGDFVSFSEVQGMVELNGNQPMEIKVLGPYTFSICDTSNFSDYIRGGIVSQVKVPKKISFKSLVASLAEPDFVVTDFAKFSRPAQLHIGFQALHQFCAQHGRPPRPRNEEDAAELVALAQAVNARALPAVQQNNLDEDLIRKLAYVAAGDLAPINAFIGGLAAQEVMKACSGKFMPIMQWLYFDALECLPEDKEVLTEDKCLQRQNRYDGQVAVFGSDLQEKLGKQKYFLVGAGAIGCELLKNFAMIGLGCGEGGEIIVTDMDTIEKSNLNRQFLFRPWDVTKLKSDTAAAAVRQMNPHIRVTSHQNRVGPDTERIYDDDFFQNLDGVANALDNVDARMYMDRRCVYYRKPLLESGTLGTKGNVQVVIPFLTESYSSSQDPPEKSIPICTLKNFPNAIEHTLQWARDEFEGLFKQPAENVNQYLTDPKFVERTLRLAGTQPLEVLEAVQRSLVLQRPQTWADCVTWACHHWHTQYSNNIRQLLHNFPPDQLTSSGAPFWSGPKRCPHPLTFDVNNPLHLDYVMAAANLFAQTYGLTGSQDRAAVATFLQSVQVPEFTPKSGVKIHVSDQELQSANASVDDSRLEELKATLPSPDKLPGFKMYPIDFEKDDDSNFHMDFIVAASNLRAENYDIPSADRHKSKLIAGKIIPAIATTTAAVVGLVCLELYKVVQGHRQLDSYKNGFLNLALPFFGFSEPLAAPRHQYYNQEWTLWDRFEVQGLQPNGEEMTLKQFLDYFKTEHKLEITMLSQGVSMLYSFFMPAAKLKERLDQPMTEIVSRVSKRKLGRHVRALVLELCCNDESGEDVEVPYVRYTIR
The settings on record: reference 51; cited from earlier work.

Experiment [4] relates to mdx mouse. The settings on record: Gazzerro et al. 2010; cited from earlier work.
The subject of experiment [5] is β-dystroglycan. As to the kind of experiment: β-dystroglycan ubiquitination after protein tyrosine phosphatase inhibition in myoblast cells expressing HA-tagged ubiquitin. The format is cell-based. The conditions noted are these: immunoprecipitation and western blot. The text has this: Tyrosine phosphatases were inhibited in myoblast cells in vitro using peroxyvanadate and samples from cells expressing HA-tagged ubiquitin were taken for immunoprecipitation and western blot analysis. Immunoprecipitation with either the HA tag, or β-dystroglycan at various time points was followed by Western blotting for the HA epitope, β-dystroglycan or tubulin as a loading control.

As for `CC(C)C[C@H](NC(=O)[C@H](CCc1ccccc1)NC(=O)CN1CCOCC1)C(=O)N[C@@H](Cc1ccccc1)C(=O)N[C@@H](CC(C)C)C(=O)[C@@]1(C)CO1` [Carfilzomib], the “effect on the dystrophic phenotype of sapje zebrafish” value (“effect on the dystrophic phenotype” below) in experiment [1] was “dose dependent rescue”. Regarding `CC(C)C[C@@H](C=O)NC(=O)[C@H](CC(C)C)NC(=O)[C@H](CC(C)C)NC(=O)OCc1ccccc1` [MG132] (Cbz-Leu-Leu-Leu-aldehyde), the “effect on the dystrophic phenotype” value in experiment [1] was “dose dependent rescue”. Also, in experiment [2], the “amount of non-phosphorylated b-dystroglycan in treated sapje fish” value is “significant increase” and the “amount of phosphorylated b-dystroglycan in treated sapje fish” value is listed as “significant increase”.

For `CCOC(=O)c1ccc(N2NC(=O)/C(=C/c3ccc([N+](=O)[O-])o3)C2=O)cc1` [Pyr-41], in experiment [1], the “effect on the dystrophic phenotype” value is reported as “small but positive benefit; also recorded: dose dependent rescue”. Moreover, the “inhibition of ubiquitin activating enzyme E1” value in experiment [3] was “inhibit the ubiquitin activating enzyme E1”. Take `CC(C)C[C@H](NC(=O)[C@H](Cc1ccccc1)NC(=O)c1cnccn1)B(O)O` [bortezomib]: the “effect on the dystrophic phenotype” value in experiment [1] was “Qualitatively similar results; also recorded: dose dependent rescue”. Also, the “restoration of DGC components” value in experiment [4] was “restore DGC components”. As to peroxyvanadate, the “ubiquitin-β-dystroglycan bands over time course of treatment” value in experiment [5] was “increase in the proportion and number of ubiquitin-β-dystroglycan bands”.

Source of the values: patent US9707265B2, “Treatment of muscular dystrophy” (The University of Sheffield, priority 2012, dated 2017).
